Data taken from paper PMC9866191, “Novel 9-Benzylaminoacridine Derivatives as Dual Inhibitors of Phosphodiesterase 5 and Topoisomerase II for the Treatment of Colon Cancer” (Molecules, 2023).

How the values were obtained:
Assay in all cases: NCI-60 one-dose screen
Assay type in all cases: cell-based
HCT-116 = conditions: Homo sapiens, read-out: Growth inhibition %
OVCAR-3 = conditions: Homo sapiens; OVCAR-3, Ovarian Cancer panel; single dose 10^−5 M; read-out: Growth inhibition %
UACC-62 = conditions: Homo sapiens; UACC-62, Melanoma panel; single dose 10^−5 M; read-out: Growth inhibition %
SR = conditions: Homo sapiens, Leukemia panel, single dose 10^−5 M, read-out: Growth inhibition %
COLO 205 = conditions: Homo sapiens; COLO 205, Colon Cancer panel; single dose 10^−5 M; read-out: Growth inhibition %
EKVX = conditions: Homo sapiens, Non-small cell lung panel, single dose 10^−5 M, read-out: Growth inhibition %
OVCAR-5 = conditions: Homo sapiens; OVCAR-5, Ovarian Cancer panel; single dose 10^−5 M; read-out: Growth inhibition %
HOP-62 = conditions: Homo sapiens; HOP-62, Non-small cell lung panel; single dose 10^−5 M; read-out: Growth inhibition %
MALME-3M = conditions: Homo sapiens, Melanoma panel, single dose 10^−5 M, read-out: Growth inhibition %
786-0 = conditions: Homo sapiens; 786-0, Renal Cancer panel; single dose 10^−5 M; read-out: Growth inhibition %
HCT-15 = conditions: Homo sapiens; HCT-15, Colon Cancer panel; single dose 10^−5 M; read-out: Growth inhibition %
A498 = conditions: Homo sapiens; A498, Renal Cancer panel; single dose 10^−5 M; read-out: Growth inhibition %
NCI/ADR-RES = conditions: Homo sapiens, Ovarian Cancer panel, single dose 10^−5 M, read-out: Growth inhibition %
MDA-MB-435 = conditions: Homo sapiens; MDA-MB-435, Melanoma panel; single dose 10^−5 M; read-out: Growth inhibition %
HS 578T = conditions: Homo sapiens, Breast Cancer panel, single dose 10^−5 M, read-out: Growth inhibition %
SF-295 = conditions: Homo sapiens; SF-295, CNS Cancer panel; single dose 10^−5 M; read-out: Growth inhibition %
SK-MEL-5 = conditions: Homo sapiens; SK-MEL-5, Melanoma panel; single dose 10^−5 M; read-out: Growth inhibition %
MOLT-4 = conditions: Homo sapiens; MOLT-4, Leukemia panel; single dose 10^−5 M; read-out: Growth inhibition %
UACC-257 = conditions: Homo sapiens; UACC-257, Melanoma panel; single dose 10^−5 M; read-out: Growth inhibition %
OVCAR-4 = conditions: Homo sapiens; OVCAR-4, Ovarian Cancer panel; single dose 10^−5 M; read-out: Growth inhibition %
OVCAR-8 = conditions: Homo sapiens; OVCAR-8, Ovarian Cancer panel; single dose 10^−5 M; read-out: Growth inhibition %
HCC-2998 = conditions: Homo sapiens; HCC-2998, Colon Cancer panel; single dose 10^−5 M; read-out: Growth inhibition %
T-47D = conditions: Homo sapiens, T47D, Breast Cancer panel, single dose 10^−5 M, read-out: Growth inhibition %
M14 = conditions: Homo sapiens; M14, Melanoma panel; single dose 10^−5 M; read-out: Growth inhibition %
NCI-H522 = conditions: Homo sapiens; NCI-H522, Non-small cell lung panel; single dose 10^−5 M; read-out: Growth inhibition %
TK-10 = conditions: Homo sapiens; TK-10, Renal Cancer panel; single dose 10^−5 M; read-out: Growth inhibition %
SN12C = conditions: Homo sapiens, Renal Cancer panel, single dose 10^−5 M, read-out: Growth inhibition %
HL-60(TB) = conditions: Homo sapiens, Leukemia panel, single dose 10^−5 M, read-out: Growth inhibition %
MCF7 = conditions: Homo sapiens; MCF7, Breast Cancer panel; single dose 10^−5 M; read-out: Growth inhibition %
UO-31 = conditions: Homo sapiens; UO-31, Renal Cancer panel; single dose 10^−5 M; read-out: Growth inhibition %
HOP-92 = conditions: Homo sapiens; HOP-92, Non-small cell lung panel; single dose 10^−5 M; read-out: Growth inhibition %
NCI-H23 = conditions: Homo sapiens; NCI-H23, Non-small cell lung panel; single dose 10^−5 M; read-out: Growth inhibition %

Compound | inhibition at 10 µM (HCT-116) [%] | inhibition at 10 µM (OVCAR-3) [%] | inhibition at 10 µM (UACC-62) [%] | inhibition at 10 µM (SR) [%] | inhibition at 10 µM (COLO 205) [%] | inhibition at 10 µM (EKVX) [%] | inhibition at 10 µM (OVCAR-5) [%] | inhibition at 10 µM (HOP-62) [%] | inhibition at 10 µM (MALME-3M) [%] | inhibition at 10 µM (786-0) [%] | inhibition at 10 µM (HCT-15) [%] | inhibition at 10 µM (A498) [%] | inhibition at 10 µM (NCI/ADR-RES) [%] | inhibition at 10 µM (MDA-MB-435) [%] | inhibition at 10 µM (HS 578T) [%] | inhibition at 10 µM (SF-295) [%] | inhibition at 10 µM (SK-MEL-5) [%] | inhibition at 10 µM (MOLT-4) [%] | inhibition at 10 µM (UACC-257) [%] | inhibition at 10 µM (OVCAR-4) [%] | other results
COc1ccc(CNc2c3ccccc3nc3ccccc23)c(OC)c1 [Compound 17, Acridin-9-yl-(2,4-dimethoxybenzyl)-amine] | 87.2 | 30.8 | 45.5 | 81.9 | 75.4 | 48.9 | 49.7 | 52.8 | 33 | 60.9 | 74 | 111 | 64.4 | 61.3 | 31.1 | 63.7 | 29.6 | 81.5 | 25.4 | 60.3 | inhibition at 10 µM (OVCAR-8): 62.2%; inhibition at 10 µM (HCC-2998): 64.4%; inhibition at 10 µM (T-47D): 47.1%; inhibition at 10 µM (M14): 56.2%; inhibition at 10 µM (NCI-H522): 59.4%; inhibition at 10 µM (TK-10): 45.6%; inhibition at 10 µM (SN12C): 69%; inhibition at 10 µM (HL-60(TB)): 63.1%; inhibition at 10 µM (MCF7): 85.5%; inhibition at 10 µM (UO-31): 72%; inhibition at 10 µM (HOP-92): 114%; inhibition at 10 µM (NCI-H23): 65.1%
COc1ccc(CNc2c3ccccc3nc3ccccc23)cc1OC [Compound 18, Acridin-9-yl-(3,4-dimethoxybenzyl)-amine] | 87.8 | 56.3 | 73.2 | 91.4 | 94.7 | 84.8 | 72.5 | 65.5 | 92.1 | 74.6 | 89.8 | 112 | 80.7 | 70.6 | 62.8 | 81.9 | 82.5 | 89.4 | 77.9 | 78.6 | inhibition at 10 µM (OVCAR-8): 76.2%; inhibition at 10 µM (HCC-2998): 69.9%; inhibition at 10 µM (T-47D): 74.2%; inhibition at 10 µM (M14): 82.3%; inhibition at 10 µM (NCI-H522): 81.8%; inhibition at 10 µM (TK-10): 67.7%; inhibition at 10 µM (SN12C): 77.5%; inhibition at 10 µM (HL-60(TB)): 87.3%; inhibition at 10 µM (MCF7): 99.3%; inhibition at 10 µM (UO-31): 87.9%; inhibition at 10 µM (HOP-92): 110%; inhibition at 10 µM (NCI-H23): 84.9%
Fc1cccc(CNc2c3ccccc3nc3ccccc23)c1F [Compound 20, Acridin-9-yl-(2,3-difluorobenzyl)-amine] | 82.5 | 13.9 | 24.3 | 61.8 | 59.1 | 37.1 | 26.8 | 27.3 | 5.87 | 34.6 | 60.5 | 101 | 51.5 | 12.7 | 13 | 46.2 | 17 | 71.6 | 7.14 | 50.1 | inhibition at 10 µM (OVCAR-8): 49.2%; inhibition at 10 µM (HCC-2998): 41.6%; inhibition at 10 µM (T-47D): 31.7%; inhibition at 10 µM (M14): 29.4%; inhibition at 10 µM (NCI-H522): 46.1%; inhibition at 10 µM (TK-10): 10.8%; inhibition at 10 µM (SN12C): 51%; inhibition at 10 µM (HL-60(TB)): 24%; inhibition at 10 µM (MCF7): 70.2%; inhibition at 10 µM (UO-31): 60%; inhibition at 10 µM (HOP-92): 97.3%; inhibition at 10 µM (NCI-H23): 39.4%
Fc1ccc(CNc2c3ccccc3nc3ccccc23)c(F)c1 [Compound 21, Acridin-9-yl-(2,4-difluorobenzyl)-amine] | 85.8 | 29.8 | 40.9 | 74.8 | 73.2 | 54.5 | 48.3 | 42.8 | 30.5 | 52.4 | 71.3 | 104 | 63.8 | 33.5 | 24.6 | 59.6 | 30.6 | 76.2 | 31.1 | 108 | inhibition at 10 µM (OVCAR-8): 59.8%; inhibition at 10 µM (HCC-2998): 58.7%; inhibition at 10 µM (T-47D): 52.6%; inhibition at 10 µM (M14): 44.7%; inhibition at 10 µM (NCI-H522): 57.7%; inhibition at 10 µM (TK-10): 39%; inhibition at 10 µM (SN12C): 62.8%; inhibition at 10 µM (HL-60(TB)): 41.7%; inhibition at 10 µM (MCF7): 89.8%; inhibition at 10 µM (UO-31): 69.7%; inhibition at 10 µM (HOP-92): 103%; inhibition at 10 µM (NCI-H23): 57.2%
c1ccc(CCNc2c3ccccc3nc3ccccc23)cc1 [Compound 23, Acridin-9-yl-phenethyl-amine] | 83.5 | 29 | 46.8 | 79.1 | 78.8 | 63.7 | 46.6 | 44.9 | 42.9 | 61.9 | 76.7 | 105 | 66.5 | 44.7 | 26.7 | 65.1 | 35.3 | 75.4 | 44.8 | 65 | inhibition at 10 µM (OVCAR-8): 61.7%; inhibition at 10 µM (HCC-2998): 58.6%; inhibition at 10 µM (T-47D): 51.1%; inhibition at 10 µM (M14): 57.3%; inhibition at 10 µM (NCI-H522): 60.2%; inhibition at 10 µM (TK-10): 46.8%; inhibition at 10 µM (SN12C): 66.9%; inhibition at 10 µM (HL-60(TB)): 58.7%; inhibition at 10 µM (MCF7): 87.8%; inhibition at 10 µM (UO-31): 75.8%; inhibition at 10 µM (HOP-92): 102%; inhibition at 10 µM (NCI-H23): 61.4%
